Laboratory results published in patent publication US9410148B2, “Method for constructing libraries of non-standard peptide compounds comprising N-methyl amino acids and other special (non-standard) amino acids and method for searching and identifying active species” (THE UNIVERSITY OF TOKYO, priority 2010, dated 2016).
Values belong to the molecule of their own block, whether it stands above or below them. Bridge positions count the residues as written; N and C are the ends. Square brackets hold non-standard residues; d marks the D form. Peptide text beside a SMILES is read from it. NMeF = CN[C@@H](Cc1ccccc1)C(=O)O; NMeS = CN[C@@H](CO)C(=O)O; Sar = CNCC(=O)O

Assays:
E6AP-HECT [1] = molecular target: T1, E6AP-HECT (Homo sapiens, UniProt Q05086); assay: KD / nM
T1 construct: The C terminal domain of E6AP, consisting of about 350 amino acid residues, is called the HECT
Source text: Table printed on a drawing sheet, Figure 5-4
Head of the field: KD / nM
Biotinylated E6AP-HECT was fixed to the streptavidin chip to analyze affinity using the peptides. (Example 7)
First copying reader's note: Brackets drawn under MCP11 and CP11 link the N-terminal CH2CO to the second Cys (cyclic peptides); the raised Me marks and underlining denote N-methyl residues.
Where the first naming reader finds the target: description_of_the_figure: Biotinylated E6AP-HECT was fixed to the streptavidin chip to analyze affinity using the peptides.
T1 sequence (Q05086 whole entry, looked up, the tested form may be a part): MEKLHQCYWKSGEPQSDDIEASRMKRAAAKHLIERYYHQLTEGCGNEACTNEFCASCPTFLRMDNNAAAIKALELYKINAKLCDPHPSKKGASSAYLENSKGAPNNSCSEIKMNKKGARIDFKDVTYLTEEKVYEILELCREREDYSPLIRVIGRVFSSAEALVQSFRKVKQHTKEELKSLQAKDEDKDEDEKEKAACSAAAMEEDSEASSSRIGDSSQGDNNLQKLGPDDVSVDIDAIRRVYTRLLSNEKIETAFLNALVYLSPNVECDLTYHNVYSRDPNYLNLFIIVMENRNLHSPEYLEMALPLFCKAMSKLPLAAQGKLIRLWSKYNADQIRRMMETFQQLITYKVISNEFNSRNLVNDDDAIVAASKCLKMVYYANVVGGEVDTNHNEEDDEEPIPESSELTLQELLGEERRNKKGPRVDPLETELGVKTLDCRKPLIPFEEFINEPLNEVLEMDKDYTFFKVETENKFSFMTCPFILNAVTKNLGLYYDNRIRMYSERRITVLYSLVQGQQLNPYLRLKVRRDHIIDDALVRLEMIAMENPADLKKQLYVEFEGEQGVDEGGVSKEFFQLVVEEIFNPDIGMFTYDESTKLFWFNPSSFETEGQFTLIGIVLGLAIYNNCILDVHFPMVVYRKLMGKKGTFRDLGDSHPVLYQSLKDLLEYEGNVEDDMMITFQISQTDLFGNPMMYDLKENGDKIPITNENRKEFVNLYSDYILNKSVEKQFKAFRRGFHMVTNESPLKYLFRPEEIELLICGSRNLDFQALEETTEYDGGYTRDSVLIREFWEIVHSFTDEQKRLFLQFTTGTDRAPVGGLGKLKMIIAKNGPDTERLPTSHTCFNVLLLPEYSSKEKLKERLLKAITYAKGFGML

E6AP-HECT [2] = molecular target: T2, E6AP-HECT (Homo sapiens, UniProt Q05086); assay: Determination of binding constant using SPR (BIACORE T100, streptavidin sensor chip)
T2 construct: The C terminal domain of E6AP, consisting of about 350 amino acid residues, is called the HECT
T2 sequence (Q05086 495-852 isoform Q05086-2 limits assumed): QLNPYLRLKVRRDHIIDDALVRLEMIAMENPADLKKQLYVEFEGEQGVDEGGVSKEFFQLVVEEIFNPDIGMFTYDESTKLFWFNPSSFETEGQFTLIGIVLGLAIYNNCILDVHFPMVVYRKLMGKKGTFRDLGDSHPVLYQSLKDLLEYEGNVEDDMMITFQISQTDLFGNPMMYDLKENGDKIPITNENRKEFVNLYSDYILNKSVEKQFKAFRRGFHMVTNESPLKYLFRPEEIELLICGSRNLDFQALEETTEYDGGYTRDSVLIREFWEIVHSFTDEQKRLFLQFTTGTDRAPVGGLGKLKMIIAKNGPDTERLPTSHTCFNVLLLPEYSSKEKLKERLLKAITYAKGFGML
Procedure: The binding constant of MCP11 to E6AP-HECT was analyzed by a surface plasmon resonance using BIACORE T100.
A streptavidin sensor chip (SA chip certified) was used as a sensor chip, an Avi-His-GB1-E6AP-HECT was used as a ligand, and MCP11 was used as an analyte. After E6AP-HECT was fixed to a sensor chip, the KD of MCP11 was 0.5 nM.

Kd (E6AP-HECT [1]): 100 to 1000 nM
SMILES: CC(=O)N[C@H](Cc1c[nH]c2ccccc12)C(=O)N[C@@H](CS)C(=O)N[C@@H](CC(=O)O)C(=O)N[C@H](C(=O)N(C)[C@@H](CO)C(=O)NCC(=O)N[C@@H](CCCNC(=N)N)C(=O)N(C)[C@@H](Cc1ccccc1)C(=O)N(C)CC(=O)N[C@@H](Cc1ccc(O)cc1)C(=O)N(C)[C@@H](Cc1ccccc1)C(=O)N1CCC[C@H]1C(=O)N[C@@H](CS)C(=O)NCC(N)=O)C(C)C [MLP11:, CH3CO-wCDV^MeSGR^MeF^MeGY^MeFPCG-NH2] (Ac-[dW]CDV[NMeS]GR[NMeF][Sar]Y[NMeF]PCG-NH2)

Kd (E6AP-HECT [2]; surface plasmon resonance, Avi-His-GB1-E6AP-HECT fixed as ligand, peptide as analyte): 0.5 nM
SMILES: CC(C)[C@@H]1NC(=O)[C@H](CC(=O)O)NC(=O)[C@H](CS)NC(=O)[C@@H](Cc2c[nH]c3ccccc23)NC(=O)CSC[C@@H](C(=O)NCC(N)=O)NC(=O)[C@@H]2CCCN2C(=O)[C@H](Cc2ccccc2)N(C)C(=O)[C@H](Cc2ccc(O)cc2)NC(=O)CN(C)C(=O)[C@H](Cc2ccccc2)N(C)C(=O)[C@H](CCCNC(=N)N)NC(=O)CNC(=O)[C@H](CO)N(C)C1=O [MCP11, Cyclo(-Ac-^DWCDV^MeSGR^MeF^MeGY^MeFPC)G-OH] ({CH2CO}-[dW]CDV[NMeS]GR[NMeF][Sar]Y[NMeF]PCG-NH2; thioether N-13)

difference in the binding ability (E6AP-HECT [2]; KD of MLP11 relative to MCP11): ≥ 200 times
SMILES: CC(=O)N[C@H](Cc1c[nH]c2ccccc12)C(=O)N[C@@H](CS)C(=O)N[C@@H](CC(=O)O)C(=O)N[C@H](C(=O)N(C)[C@@H](CO)C(=O)NCC(=O)N[C@@H](CCCNC(=N)N)C(=O)N(C)[C@@H](Cc1ccccc1)C(=O)N(C)CC(=O)N[C@@H](Cc1ccc(O)cc1)C(=O)N(C)[C@@H](Cc1ccccc1)C(=O)N1CCC[C@H]1C(=O)N[C@@H](CS)C(=O)NCC(N)=O)C(C)C [MLP11] (Ac-[dW]CDV[NMeS]GR[NMeF][Sar]Y[NMeF]PCG-NH2)
